Experimental data from patent publication US9359589B2, “Use of at least one chelating agent introduced into the culture medium of magnetotactic bacteria in order to stimulate the growth thereof” (UNIVERSITE PIERRE ET MARIE CURIE (PARIS 6), priority 2011, dated 2016).

test system: Magnetotactic bacteria of the Magnetospirillum magneticum species, strain AMB-1; assay: Growth of magnetotactic bacteria after 7 days of culture in 1 liter of medium with chelating agent (absorption at 565 nm); format: cell-based; details: chelating agent 0.4 μM, 1 liter
Method: (§1) Magnetotactic bacteria of the Magnetospirillum magneticum species, strain AMB-1, available from ATCC under the reference ATCC No. 700274, were used.
The cells were placed in culture under microanaerobic conditions, i.e. in a culture medium which has not been degassed but which is closed and has no contact with oxygen. The bacteria were cultured at laboratory temperature (approximately 25° C.) in a liquid culture in a slighly modified MSGM medium (medium ATCC 1653), the makeup of which is described hereinafter.
For a volume of one liter, the culture medium contains 0.68 g of monobasic potassium phosphate, 0.85 g of sodium succinate, 0.57 g of sodium tartrate, 0.083 g of sodium acetate, 225 μl of resazurin at 0.2%, 0.17 g of sodium nitrate, 0.04 g of L-ascorbic acid, 2 ml of a 10 mM iron quinate solution, 10 ml of a Woolf vitamin solution and 5 ml of a Woolf mineral solution.
(§2) In order to prepare the culture medium containing the various iron-chelating agents, said agents were introduced at various concentrations into the culture medium described above (section 1.2).
(§3) In this example, the magnetotactic bacteria were cultured in the presence of various chelating agents and harvested after 7 days. The absorption and the iron oxide concentration of the magnetosome chains extracted from the bacteria were then measured.

Compound | absorption measured at 565 nm of bacterial suspension compared with bacteria cultured in the absence of chelating agent
CCN(CC)c1ccc2c(-c3ccccc3C(=O)O)c3ccc(=[N+](CC)CC)cc-3oc2c1 [rhodamine B] | greater
O=S(=O)(O)CCCNC1CCCCC1 [3-[cyclohexylamino]-1-propanesulfonic acid] | greater
hemoglobin | greater
Nc1ccccc1C(=O)O [anthranilic acid] | greater
O=C(O)CN(CCN(CC(=O)O)CC(=O)O)CC(=O)O [EDTA, ethylenediaminetetraacetic acid] | greater

same assay, conditions: chelating agent 4 μM, 1 liter

Compound | absorption measured at 565 nm of bacterial suspension compared with bacteria cultured in the absence of chelating agent
O=C(O)CC(O)(CC(=O)O)C(=O)O [citric acid] | greater
CCN(CC)c1ccc2c(-c3ccccc3C(=O)O)c3ccc(=[N+](CC)CC)cc-3oc2c1 [rhodamine B] | greater
O=S(=O)(O)CCCNC1CCCCC1 [3-[cyclohexylamino]-1-propanesulfonic acid] | greater
O=S(=O)(O)CCCN1CCOCC1 [3-(N-morpholino)propanesulfonic acid] | greater
hemoglobin | greater
O=C(O)CN(CCN(CC(=O)O)CC(=O)O)CC(=O)O [EDTA, ethylenediaminetetraacetic acid] | greater
O=C(O)CN(CC(=O)O)Cc1cc2c(cc1O)Oc1cc(O)c(CN(CC(=O)O)CC(=O)O)cc1C21OC(=O)c2ccccc21 [calcein] | greater

same assay, conditions: chelating agent 40 μM

Compound | absorption relative to that of the control bacteria
NC(=O)c1cccnc1 [nicotinamide] | 1.5-2 times

same assay, conditions: chelating agent 40 μM, 1 liter

Compound | absorption measured at 565 nm of bacterial suspension compared with bacteria cultured in the absence of chelating agent
O=C(O)CC(O)(CC(=O)O)C(=O)O [citric acid] | greater
NCCCCCC(O)(P(=O)(O)O)P(=O)(O)O [neridronate, reference compound] | greater
CCN(CC)c1ccc2c(-c3ccccc3C(=O)O)c3ccc(=[N+](CC)CC)cc-3oc2c1 [rhodamine B] | greater
O=S(=O)(O)CCCNC1CCCCC1 [3-[cyclohexylamino]-1-propanesulfonic acid] | greater
NC(=O)c1cccnc1 [nicotinamide] | greater
O=S(=O)(O)CCCN1CCOCC1 [3-(N-morpholino)propanesulfonic acid] | greater
hemoglobin | greater
dextran | greater
O=C(O)CN(CCN(CC(=O)O)CC(=O)O)CC(=O)O [EDTA, ethylenediaminetetraacetic acid] | greater
O=C(O)CN(CC(=O)O)Cc1cc2c(cc1O)Oc1cc(O)c(CN(CC(=O)O)CC(=O)O)cc1C21OC(=O)c2ccccc21 [calcein] | greater

test system: Magnetotactic bacteria of the Magnetospirillum magneticum species, strain AMB-1; assay: Magnetosome production after 7 days of culture (iron oxide concentration of extracted magnetosome chains, absorption at 480 nm); format: cell-based; details: 0.4 μM in the culture medium
Method: as §1, §2
The cells were harvested during the stationary phase.
The cells are harvested during the stationary phase by centrifugation at 4000 g for 20 minutes. The supernatant is removed and the cells are resuspended in 3 ml of deionized water.
To extract the magnetosome chains, 1 ml of cell suspension obtained as described above is again centrifuged and then resuspended in a 10 mM Tris-HCl buffer at pH 7.4, and then the cell suspension is subjected to a sonication step for 120 minutes at a power of 30 W, in order to lyze the cells and to release the magnetosome chains. Sonication periods of 60 and 180 minutes can also be used. For a sonication period of less than 60 minutes, the bacteria are not all lyzed. For a sonication period of greater than 180 minutes, the beginnings of aggregation are observed owing to the presence of individual magnetosomes which are aggregated.
After sonication, the magnetosome chain suspension is separated by placing a powerful neodynium magnet (0.1-1 T) in proximity to the tube, and the magnetic material is then recovered in the form of a pellet.
The maghemite concentration of a suspension of magnetosome chains extracted from magnetotactic bacteria was measured using the measurement of the absorption at 480 nm of this suspension. The method of calibration between the value of the absorption and the amount of maghemite is described elsewhere (PCT/EP2010/067765). These measurements were carried out in order to determine the amount of magnetosome chains produced by the magnetotactic bacteria after a given growth time. The amounts of magnetosome chains produced in the absence and in the presence of the chelating agents were then compared.
as §3

Compound | factor of increase of iron oxide production
hemoglobin | 7-8

same assay, conditions: 4 μM in the culture medium

Compound | factor of increase of iron oxide production
hemoglobin | 7-8

same assay, conditions: chelating agent 0.4 μM

Compound | magnetosome production (iron oxide concentration) compared with the control bacteria
CCN(CC)c1ccc2c(-c3ccccc3C(=O)O)c3ccc(=[N+](CC)CC)cc-3oc2c1 [rhodamine B] | increased
NCCCC(O)(P(=O)(O)O)P(=O)(O)O [alendronate, reference compound] | increased
O=S(=O)(O)CCCNC1CCCCC1 [3-[cyclohexylamino]-1-propanesulfonic acid] | increased
O=S(=O)(O)CCCN1CCOCC1 [3-(N-morpholino)propanesulfonic acid] | increased
hemoglobin | increased
Nc1ccccc1C(=O)O [anthranilic acid] | increased
O=C(O)CN(CCN(CC(=O)O)CC(=O)O)CC(=O)O [EDTA, ethylenediaminetetraacetic acid] | increased

same assay, conditions: chelating agent 4 μM

Compound | magnetosome production (iron oxide concentration) compared with the control bacteria
O=C(O)CC(O)(CC(=O)O)C(=O)O [citric acid] | increased
CCN(CC)c1ccc2c(-c3ccccc3C(=O)O)c3ccc(=[N+](CC)CC)cc-3oc2c1 [rhodamine B] | increased
NCCCC(O)(P(=O)(O)O)P(=O)(O)O [alendronate, reference compound] | increased
O=S(=O)(O)CCCNC1CCCCC1 [3-[cyclohexylamino]-1-propanesulfonic acid] | increased
hemoglobin | increased
O=C(O)CN(CCN(CC(=O)O)CC(=O)O)CC(=O)O [EDTA, ethylenediaminetetraacetic acid] | increased
O=C(O)CN(CC(=O)O)Cc1cc2c(cc1O)Oc1cc(O)c(CN(CC(=O)O)CC(=O)O)cc1C21OC(=O)c2ccccc21 [calcein] | increased

same assay, conditions: chelating agent 40 μM

Compound | magnetosome production (iron oxide concentration) compared with the control bacteria
O=C(O)CC(O)(CC(=O)O)C(=O)O [citric acid] | increased
CCN(CC)c1ccc2c(-c3ccccc3C(=O)O)c3ccc(=[N+](CC)CC)cc-3oc2c1 [rhodamine B] | increased
NCCCC(O)(P(=O)(O)O)P(=O)(O)O [alendronate, reference compound] | increased
O=S(=O)(O)CCCNC1CCCCC1 [3-[cyclohexylamino]-1-propanesulfonic acid] | increased
hemoglobin | increased
dextran | increased
O=C(O)CN(CC(=O)O)Cc1cc2c(cc1O)Oc1cc(O)c(CN(CC(=O)O)CC(=O)O)cc1C21OC(=O)c2ccccc21 [calcein] | increased

test system: Magnetospirillum magneticum; assay: Growth over time of magnetotactic bacteria in 10 ml tubes with chelating agent (absorbance, O.D. at 565 nm, D2-D9); format: cell-based; details: 0.4 μM, D4
Method: Cultures of Magnetospirillum magneticum were prepared as described in example 1. The bacteria were cultured in 10 milliliter tubes. A volume of 100 microliters of culture medium was inoculated, at time “D0” (Day 0), with 0.1×10^6 bacterial cells. The cultures in suspension were placed at ambient temperature (approximately 25° C.) and the growth of the bacteria over time was monitored by measuring O.D. at the wavelength of 565 nanometers.
The following series of culture samples were prepared: • samples of control culture, comprising the bacterial cells in the culture medium free of chelating agent; • a series of culture samples containing the chelating agent rhodamine B, at increasing concentrations of 0.4 μM, 4 μM, 40 μm and 400 μM; • a series of culture samples containing the chelating agent ascorbic acid, at increasing concentrations of 0.4 μM, 4 μM, 40 μM and 400 μM; • a series of culture samples containing the chelating agent erythrosine, at increasing concentrations of 0.4 μM, 40 μM and 400 μM; • a series of culture samples containing the chelating agent folic acid, at increasing concentrations of 0.4 μM, 4 μM, 40 μM and 400 μM;
The bacteria were cultured for 12 days in a tube and the absorbance over the whole of the spectrum ranging from 400 to 700 nanometers was measured, respectively, (i) on the second day (D2) after inoculation, (ii) on the third day (D3) after inoculation, (iii) on the fourth day (D4) after inoculation, (iv) on the seventh day (D7) after inoculation, (v) on the eighth day (D8) after inoculation and (vi) on the ninth day (D9) after inoculation. The magnetic moments of various suspensions of magnetotactic bacteria deposited on blotting paper were measured on days D7, D8 and D9.

Compound | absorption compared with control bacteria on day D4
O=C1OC2(c3ccccc31)c1cc(I)c(O)c(I)c1Oc1c2cc(I)c(O)c1I [erythrosine] | greater

same assay, conditions: 0.4 μM, first 4 days of growth

Compound | multiplication of the bacteria during the first 4 days
Nc1nc2ncc(CNc3ccc(C(=O)N[C@@H](CCC(=O)O)C(=O)O)cc3)nc2c(=O)[nH]1 [folic acid] | multiply in greater number

same assay, conditions: 4 μM, D4

Compound | absorption compared with control bacteria on day D4
O=C1OC2(c3ccccc31)c1cc(I)c(O)c(I)c1Oc1c2cc(I)c(O)c1I [erythrosine] | greater

same assay, conditions: 4 μM, first two days of growth

Compound | growth of the bacteria during the first two days
Nc1nc2ncc(CNc3ccc(C(=O)N[C@@H](CCC(=O)O)C(=O)O)cc3)nc2c(=O)[nH]1 [folic acid] | grow more rapidly

same assay, conditions: 40 μM, first 4 days of growth

Compound | multiplication of the bacteria during the first 4 days
Nc1nc2ncc(CNc3ccc(C(=O)N[C@@H](CCC(=O)O)C(=O)O)cc3)nc2c(=O)[nH]1 [folic acid] | multiply in greater number

same assay, conditions: 400 μM

Compound | effect on cell growth at high concentration
CCN(CC)c1ccc2c(-c3ccccc3C(=O)O)c3ccc(=[N+](CC)CC)cc-3oc2c1 [rhodamine B] | rather unfavorable

same assay, conditions: 0.4-400 μM, D2 to D9, 10 ml tubes

Compound | effect on the growth of the magnetotactic bacteria (absorbance compared with cultures without the agent)
CCN(CC)c1ccc2c(-c3ccccc3C(=O)O)c3ccc(=[N+](CC)CC)cc-3oc2c1 [rhodamine B] | stimulates the growth
O=C1OC2(c3ccccc31)c1cc(I)c(O)c(I)c1Oc1c2cc(I)c(O)c1I [erythrosine] | stimulates the growth of the magnetotactic bacteria less than rhodamine B or ascorbic acid
Nc1nc2ncc(CNc3ccc(C(=O)N[C@@H](CCC(=O)O)C(=O)O)cc3)nc2c(=O)[nH]1 [folic acid] | stimulates the growth

same assay, conditions: all concentrations except 400 μM

Compound | growth curves (fitted absorption, first 7 days) relative to bacteria cultured in the absence of the agent
CCN(CC)c1ccc2c(-c3ccccc3C(=O)O)c3ccc(=[N+](CC)CC)cc-3oc2c1 [rhodamine B] | above

same assay, conditions: exponential growth phase

Compound | period of culture during which the effects are greatest
CCN(CC)c1ccc2c(-c3ccccc3C(=O)O)c3ccc(=[N+](CC)CC)cc-3oc2c1 [rhodamine B] | first six days

same assay, conditions: the other days of culture and the other concentrations

Compound | absorption compared with control bacteria
O=C1OC2(c3ccccc31)c1cc(I)c(O)c(I)c1Oc1c2cc(I)c(O)c1I [erythrosine] | either similar to or lower
